Assay results from patent US20260151383A1, “HETEROCYCLIC COMPOUNDS AND USES THEREOF” (KayoThera Inc., priority 2022, published 2026).

How the values were obtained:
Assay type in all cases: biochemical
Details in all cases: recombinant enzyme, 20° C., activity level classes
[1] = target: T1, mALDH1a2 (Mus musculus, UniProt Q62148); assay: Aldh1a2 enzyme inhibition assay (resorufin fluorescence), mouse enzyme
T1 construct: made in house; host or cells: E. coli BL21-DE3
T1 sequence (Q62148 1-518): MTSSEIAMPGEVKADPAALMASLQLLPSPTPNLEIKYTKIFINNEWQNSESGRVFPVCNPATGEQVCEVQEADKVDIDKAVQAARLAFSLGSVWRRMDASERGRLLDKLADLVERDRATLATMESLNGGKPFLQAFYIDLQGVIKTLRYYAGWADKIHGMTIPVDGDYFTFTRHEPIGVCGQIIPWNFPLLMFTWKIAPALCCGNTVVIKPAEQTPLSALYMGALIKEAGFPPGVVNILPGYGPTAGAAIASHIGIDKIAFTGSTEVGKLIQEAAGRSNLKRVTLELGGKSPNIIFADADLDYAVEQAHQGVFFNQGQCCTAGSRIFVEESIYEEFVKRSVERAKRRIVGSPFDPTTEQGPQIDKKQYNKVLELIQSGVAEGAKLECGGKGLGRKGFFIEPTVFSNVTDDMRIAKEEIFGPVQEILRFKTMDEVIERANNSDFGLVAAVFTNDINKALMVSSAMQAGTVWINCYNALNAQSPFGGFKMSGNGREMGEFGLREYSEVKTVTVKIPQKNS
Description: (§1) Recombinant enzyme and inhibitor added immediately before assay. Reaction rate measured by resorufln fluorescence.

[2] = target: T2, mALDH1a3 (Mus musculus, UniProt Q9JHW9); assay: Aldh1a3 enzyme inhibition assay (resorufin fluorescence), mouse enzyme
T2 construct: made in house; host or cells: E. coli BL21-DE3
T2 sequence (Q9JHW9 1-512): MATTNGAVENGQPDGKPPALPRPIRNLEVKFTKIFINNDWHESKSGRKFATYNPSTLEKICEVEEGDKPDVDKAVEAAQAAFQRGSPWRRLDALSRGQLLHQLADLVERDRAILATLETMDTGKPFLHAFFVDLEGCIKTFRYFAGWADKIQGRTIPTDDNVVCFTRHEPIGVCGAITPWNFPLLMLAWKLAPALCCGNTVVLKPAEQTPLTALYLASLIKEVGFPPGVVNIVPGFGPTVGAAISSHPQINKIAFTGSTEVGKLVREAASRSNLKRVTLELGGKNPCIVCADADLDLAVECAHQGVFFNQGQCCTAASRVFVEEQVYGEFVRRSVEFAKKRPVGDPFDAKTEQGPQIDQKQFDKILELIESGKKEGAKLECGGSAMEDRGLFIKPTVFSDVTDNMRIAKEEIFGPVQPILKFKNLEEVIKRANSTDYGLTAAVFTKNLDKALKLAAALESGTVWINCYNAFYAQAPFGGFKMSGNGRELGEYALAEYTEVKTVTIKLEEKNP
Description: Recombinant enzyme and inhibitor added immediately before assay. Reaction rate measured by resorufin fluorescence.

[3] = target: T3, hALDH1a3 (Homo sapiens, UniProt P47895); assay: Aldh1a3 enzyme inhibition assay (resorufin fluorescence), human enzyme
T3 construct: made in house; host or cells: E. coli BL21-DE3
T3 sequence (P47895 1-512): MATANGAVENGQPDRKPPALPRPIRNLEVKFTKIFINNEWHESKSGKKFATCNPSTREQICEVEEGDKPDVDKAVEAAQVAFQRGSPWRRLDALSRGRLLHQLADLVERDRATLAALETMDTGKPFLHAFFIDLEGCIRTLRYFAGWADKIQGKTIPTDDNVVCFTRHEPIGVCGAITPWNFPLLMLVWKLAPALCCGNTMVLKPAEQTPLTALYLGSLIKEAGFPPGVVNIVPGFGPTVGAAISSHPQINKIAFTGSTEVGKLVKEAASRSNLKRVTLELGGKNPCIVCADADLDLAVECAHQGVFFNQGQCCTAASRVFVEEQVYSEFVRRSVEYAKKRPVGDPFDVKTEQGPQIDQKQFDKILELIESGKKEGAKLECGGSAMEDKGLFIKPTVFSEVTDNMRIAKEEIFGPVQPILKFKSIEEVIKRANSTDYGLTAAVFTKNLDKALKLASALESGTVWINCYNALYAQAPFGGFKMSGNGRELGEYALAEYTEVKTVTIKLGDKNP

[4] = target: T4, hALDH1a2 (Homo sapiens, UniProt O94788); assay: Aldh1a2 enzyme inhibition assay (resorufin fluorescence), human enzyme
T4 construct: made in house; host or cells: E. coli BL21-DE3
T4 sequence (O94788 1-518): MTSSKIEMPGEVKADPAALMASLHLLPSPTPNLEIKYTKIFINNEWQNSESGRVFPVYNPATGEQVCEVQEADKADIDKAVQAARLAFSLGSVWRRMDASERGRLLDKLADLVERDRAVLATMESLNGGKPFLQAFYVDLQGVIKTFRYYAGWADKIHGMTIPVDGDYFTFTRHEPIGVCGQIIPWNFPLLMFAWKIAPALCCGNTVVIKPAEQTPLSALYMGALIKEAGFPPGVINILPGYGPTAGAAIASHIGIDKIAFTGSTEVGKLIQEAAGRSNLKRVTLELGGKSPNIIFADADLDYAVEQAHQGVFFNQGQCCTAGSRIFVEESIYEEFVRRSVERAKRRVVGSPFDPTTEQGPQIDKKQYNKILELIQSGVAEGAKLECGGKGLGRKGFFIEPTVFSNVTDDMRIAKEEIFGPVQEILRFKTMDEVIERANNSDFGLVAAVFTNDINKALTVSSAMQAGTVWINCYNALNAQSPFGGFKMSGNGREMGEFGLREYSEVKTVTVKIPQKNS
Description: as §1

IC50 [1]	IC50 [2]	IC50 [3]	IC50 [4]	SMILES
< 100 nM	< 100 nM	< 100 nM	100 to 250 nM	Cc1c(Cl)c(NC(=O)c2ncsc2CC(F)(F)F)cc2c1NC(=O)CC2 [Compound 73]
250 to 1000 nM	100 to 250 nM	< 100 nM	100 to 250 nM	O=C1CCc2cc(NC(=O)c3ncsc3CC(F)(F)F)cc(Cl)c2N1 [Compound 75]
250 to 1000 nM	100 to 250 nM	250 to 1000 nM	250 to 1000 nM	Cc1cc(NC(=O)c2scnc2C2CC2)cc2c1NC(=O)CC2 [Compound 77]
100 to 250 nM	100 to 250 nM	100 to 250 nM	100 to 250 nM	Cc1cc(NC(=O)c2ocnc2CC(F)(F)F)cc2c1NC(=O)C1CC21 (stereo not shown) [Compound 82]
